Experimental data published in ChEMBL document CHEMBL1201862, “PubChem BioAssay data set” (2004).
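Dose response: 5 concentrations. Exposure: 48 h. Format: 96-well plates. Endpoint: linear interpolation; highest concentration if not reached. GI50 marks 50% less growth.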 The source made the active and inactive calls. No stated cut-off is given here; in the data, active = GI50 up to about 1.1 µM and inactive = higher.

Tests used:
Experiment in all cases: DTP human tumour cell line panel, 48 h
A498 = system: A498
ACHN = system: ACHN
DLD-1 = system: DLD-1
HCT-116 = system: HCT-116
K562 = system: K562
KM12 = system: KM12
M19-MEL = system: M19-MEL
MOLT-4 = system: MOLT-4
Malme-3M = system: Malme-3M
NCI-H23 = system: NCI-H23
OVCAR-8 = system: OVCAR-8
SF-268 = system: SF-268
SK-OV-3 = system: SK-OV-3
UACC-257 = system: UACC-257
UACC-62 = system: UACC-62
DMS-273 = system: DMS-273
HCT-15 = system: HCT-15
HOP-92 = system: HOP-92
MCF7 = system: MCF7
NCI/ADR-RES = system: NCI/ADR-RES

SMILES | GI50 (A498) | GI50 (ACHN) | GI50 (DLD-1) | GI50 (HCT-116) | GI50 (K562) | GI50 (KM12) | GI50 (M19-MEL) | GI50 (MOLT-4) | GI50 (Malme-3M) | GI50 (NCI-H23) | GI50 (OVCAR-8) | GI50 (SF-268) | GI50 (SK-OV-3) | GI50 (UACC-257) | GI50 (UACC-62) | GI50 (DMS-273) | GI50 (HCT-15) [µM] | GI50 (HOP-92) | GI50 (MCF7) | GI50 (NCI/ADR-RES)
COc1ccc(N2C(=O)/C(=C(\C)c3cc4ccccc4oc3=O)N=C2c2cc([N+](=O)[O-])ccc2Cl)cc1 | 24 µM (inactive) | 32.1 µM (inactive) | 54.7 µM (inactive) | 29.9 µM (inactive) | 10.8 µM (inactive) | 22.3 µM (inactive) | 42.1 µM (inactive) | 29.7 µM (inactive) | 45.2 µM (inactive) | 11.2 µM (inactive) | > 100 µM (inactive) | 28.7 µM (inactive) | 57.7 µM (inactive) | 44 µM (inactive) | 26.6 µM (inactive) |  |  |  |  | 
O=c1ccn([C@@H]2C=C(CO)[C@@H](O)[C@H]2O)c(=O)[nH]1 |  |  | > 625 µM (inactive) | > 625 µM (inactive) |  | > 625 µM (inactive) |  |  | > 625 µM (inactive) | > 625 µM (inactive) | > 625 µM (inactive) | > 625 µM (inactive) | > 625 µM (inactive) |  | > 625 µM (inactive) | > 625 µM (inactive) | > 625 | > 625 µM (inactive) | > 625 µM (inactive) | > 625 µM (inactive)
CCOP(=O)(COCCn1ncc(=O)[nH]c1=O)OCC | > 100 µM (inactive) | > 100 µM (inactive) |  |  |  | > 100 µM (inactive) |  | > 100 µM (inactive) | > 100 µM (inactive) | > 100 µM (inactive) | > 100 µM (inactive) | > 100 µM (inactive) |  |  |  |  | > 100 | > 100 µM (inactive) | > 100 µM (inactive) | > 100 µM (inactive)
O=c1cnn(C/C=C/CBr)c(=O)[nH]1 | 14.9 µM (inactive) | 16.7 µM (inactive) |  |  | 21.4 µM (inactive) | 17.5 µM (inactive) |  | 19.6 µM (inactive) | 16.4 µM (inactive) |  | 23.1 µM (inactive) | 17.1 µM (inactive) |  | 13.9 µM (inactive) |  |  | 18.2 | 14.6 µM (inactive) | 12.9 µM (inactive) | 23.3 µM (inactive)
COc1cccc2c1C(=O)c1c(O)c3c(c(O)c1C2=O)C[C@@](O)(C(=O)CN1CCOCC1)C[C@@H]3OC1CC(N)C(O)C(C)O1 (stereo partly drawn) | 8.55 µM (inactive) |  | 7.71 µM (inactive) | 1.89 µM (inactive) | 2.9 µM (inactive) | 4.23 µM (inactive) | 3.39 µM (inactive) |  | 3.27 µM (inactive) | 5.3 µM (inactive) | 4.47 µM (inactive) | 4.47 µM (inactive) | 7.62 µM (inactive) | 0.000769 µM (active) | 3.58 µM (inactive) | 2.23 µM (inactive) | 12.4 |  | 0.938 µM (active) | 5.52 µM (inactive)
C/C(=N/NS(=O)(=O)c1c(C)cc(C)cc1C)c1cccc[n+]1[O-] | > 100 µM (inactive) | > 100 µM (inactive) | > 100 µM (inactive) | > 100 µM (inactive) | > 100 µM (inactive) | > 100 µM (inactive) | > 100 µM (inactive) | > 100 µM (inactive) |  | > 100 µM (inactive) | > 100 µM (inactive) | > 100 µM (inactive) | > 100 µM (inactive) | > 100 µM (inactive) | > 100 µM (inactive) | > 100 µM (inactive) | > 100 | > 100 µM (inactive) |  | 
O=C1C2=C(C3=NCCc4c[nH]c1c43)c1c(cc(Br)c(O)c1Br)CCN2 | 20.2 µM (inactive) |  | 8.2 µM (inactive) | 14.5 µM (inactive) | 15 µM (inactive) | 13.4 µM (inactive) | 2.79 µM (inactive) | 2.81 µM (inactive) |  | 13.4 µM (inactive) | 8.53 µM (inactive) | 9.25 µM (inactive) | 7.41 µM (inactive) | 7.5 µM (inactive) | 3.47 µM (inactive) | 12.6 µM (inactive) | 11.5 | 20.6 µM (inactive) | 7.69 µM (inactive) | 14.5 µM (inactive)
CN1COCN/C1=N/C#N | > 100 µM (inactive) | > 100 µM (inactive) | > 100 µM (inactive) | > 100 µM (inactive) | > 100 µM (inactive) | > 100 µM (inactive) | > 100 µM (inactive) | > 100 µM (inactive) | > 100 µM (inactive) |  | > 10 µM (inactive) | > 100 µM (inactive) | > 100 µM (inactive) | > 100 µM (inactive) | > 100 µM (inactive) |  | > 100 |  |  | 
NCCCN(CCCN)CCN(CCN(CCCN)CCCN)CCN(CCCN)CCCN |  | > 100 µM (inactive) |  | > 100 µM (inactive) | > 100 µM (inactive) |  |  | > 10 µM (inactive) |  | > 100 µM (inactive) | 44.6 µM (inactive) |  | 48.4 µM (inactive) | > 100 µM (inactive) |  |  | > 100 | 82.2 µM (inactive) | > 100 µM (inactive) | > 100 µM (inactive)
